Measured values as given in the OligoGym collection.
HELM strings list units from the 5' end as sugar, base in round brackets, then linkage (d deoxyribose, r ribose, m 2'-O-methyl, p phosphodiester). Strings are as the collection lists them; they lack the last nucleoside at the 3' end of the tested compound. [moe] = 2'-O-(2-methoxyethyl) (MOE); [sp] = phosphorothioate linkage; [m5C] = 5-methylcytosine

molecular target: SMN2; experiment: mouse, dose not given; conditions: ASO

Q: Which 3 h FOB score does the source give for “RNA1{[moe](A)[sp].[moe](G)[sp].[moe](A)[sp].[moe](T)[sp].[moe](T)[sp].[moe]([m5C])[sp].[moe](A)[sp].[moe]([m5C])[sp].[moe](T)[sp].[moe](T)[sp].[moe](T)[sp].[moe]([m5C])[sp].[moe](A)[sp].[moe](T)[sp].[moe](A)[sp].[moe](A)[sp].[moe](T)[sp].[moe](G)[sp].[moe]([m5C])}$$$$ (last 3' nucleoside missing)” here?
A: 3.5 score 0-7

Q: “RNA1{[moe](A)[sp].[moe](T)[sp].[moe](T)[sp].[moe]([m5C])[sp].[moe](A)[sp].[moe]([m5C])[sp].[moe](T)[sp].[moe](T)[sp].[moe](T)[sp].[moe]([m5C])[sp].[moe](A)[sp].[moe](T)[sp].[moe](A)[sp].[moe](A)[sp].[moe](T)[sp].[moe](G)[sp].[moe]([m5C])[sp].[moe](T)[sp].[moe](G)}$$$$ (last 3' nucleoside missing)” was tested. Which 3 h FOB score did it give?
A: 4 score 0-7

Q: With “RNA1{[moe](A)[sp].[moe](T)[sp].[moe](T)[sp].[moe]([m5C])[sp].[moe](A)[sp].[moe]([m5C])[sp].[moe](T)[sp].[moe](T)[sp].[moe](T)[sp].[moe]([m5C])[sp].[moe](A)[sp].[moe](T)[sp].[moe](A)[sp].[moe](A)[sp].[moe](T)[sp].[moe](G)[sp].[moe]([m5C])[sp].[moe](T)}$$$$ (last 3' nucleoside missing)” as the substance, how does the 3 h FOB score read?
A: 3.5 score 0-7

Q: With “RNA1{[moe](A)[sp].[moe](T)[sp].[moe](T)[sp].[moe]([m5C])[sp].[moe](A)[sp].[moe]([m5C])[sp].[moe](T)[sp].[moe](T)[sp].[moe](T)[sp].[moe]([m5C])[sp].[moe](A)[sp].[moe](T)[sp].[moe](A)[sp].[moe](A)[sp].[moe](T)[sp].[moe](G)[sp].[moe]([m5C])p.[moe](T)[sp].[moe](G)}$$$$ (last 3' nucleoside missing)” as the substance, how does the 3 h FOB score read?
A: 4 score 0-7

Q: Which 3 h FOB score does the source give for “RNA1{[moe](A)[sp].[moe](T)[sp].[moe](T)[sp].[moe]([m5C])[sp].[moe](A)[sp].[moe]([m5C])[sp].[moe](T)[sp].[moe](T)[sp].[moe](T)[sp].[moe]([m5C])[sp].[moe](A)[sp].[moe](T)[sp].[moe](A)[sp].[moe](A)[sp].[moe](T)[sp].[moe](G)p.[moe]([m5C])p.[moe](T)[sp].[moe](G)}$$$$ (last 3' nucleoside missing)” here?
A: 3 score 0-7

Q: Which 3 h FOB score does the source give for “RNA1{[moe](A)[sp].[moe](T)[sp].[moe](T)[sp].[moe]([m5C])[sp].[moe](A)[sp].[moe]([m5C])[sp].[moe](T)[sp].[moe](T)[sp].[moe](T)[sp].[moe]([m5C])[sp].[moe](A)[sp].[moe](T)[sp].[moe](A)[sp].[moe](A)[sp].[moe](T)p.[moe](G)[sp].[moe]([m5C])p.[moe](T)[sp].[moe](G)}$$$$ (last 3' nucleoside missing)” here?
A: 2 score 0-7

Q: How did the 3 h FOB score turn out when “RNA1{[moe](A)[sp].[moe](T)[sp].[moe](T)[sp].[moe]([m5C])[sp].[moe](A)[sp].[moe]([m5C])[sp].[moe](T)[sp].[moe](T)[sp].[moe](T)[sp].[moe]([m5C])p.[moe](A)[sp].[moe](T)[sp].[moe](A)[sp].[moe](A)[sp].[moe](T)[sp].[moe](G)[sp].[moe]([m5C])[sp].[moe](T)[sp].[moe](G)}$$$$ (last 3' nucleoside missing)” was run?
A: 4 score 0-7

Q: With “RNA1{[moe](A)[sp].[moe](T)[sp].[moe](T)[sp].[moe]([m5C])[sp].[moe](A)[sp].[moe]([m5C])[sp].[moe](T)[sp].[moe](T)[sp].[moe](T)[sp].[moe]([m5C])p.[moe](A)[sp].[moe](T)[sp].[moe](A)[sp].[moe](A)[sp].[moe](T)[sp].[moe](G)[sp].[moe]([m5C])p.[moe](T)[sp].[moe](G)}$$$$ (last 3' nucleoside missing)” as the substance, how does the 3 h FOB score read?
A: 2.75 score 0-7

Q: For “RNA1{[moe](A)[sp].[moe](T)[sp].[moe](T)[sp].[moe]([m5C])[sp].[moe](A)[sp].[moe]([m5C])[sp].[moe](T)[sp].[moe](T)[sp].[moe](T)p.[moe]([m5C])p.[moe](A)[sp].[moe](T)[sp].[moe](A)[sp].[moe](A)[sp].[moe](T)[sp].[moe](G)[sp].[moe]([m5C])[sp].[moe](T)[sp].[moe](G)}$$$$ (last 3' nucleoside missing)”, which 3 h FOB score is on record?
A: 4 score 0-7

Q: With “RNA1{[moe](A)[sp].[moe](T)p.[moe](T)[sp].[moe]([m5C])[sp].[moe](A)[sp].[moe]([m5C])[sp].[moe](T)[sp].[moe](T)[sp].[moe](T)[sp].[moe]([m5C])[sp].[moe](A)[sp].[moe](T)[sp].[moe](A)[sp].[moe](A)[sp].[moe](T)[sp].[moe](G)[sp].[moe]([m5C])[sp].[moe](T)[sp].[moe](G)}$$$$ (last 3' nucleoside missing)” as the substance, how does the 3 h FOB score read?
A: 4 score 0-7

Q: For “RNA1{[moe](A)[sp].[moe](T)p.[moe](T)[sp].[moe]([m5C])[sp].[moe](A)[sp].[moe]([m5C])[sp].[moe](T)[sp].[moe](T)[sp].[moe](T)[sp].[moe]([m5C])[sp].[moe](A)[sp].[moe](T)[sp].[moe](A)[sp].[moe](A)[sp].[moe](T)[sp].[moe](G)[sp].[moe]([m5C])p.[moe](T)[sp].[moe](G)}$$$$ (last 3' nucleoside missing)”, which 3 h FOB score is on record?
A: 2 score 0-7

Q: With “RNA1{[moe](A)[sp].[moe](T)p.[moe](T)[sp].[moe]([m5C])[sp].[moe](A)[sp].[moe]([m5C])[sp].[moe](T)[sp].[moe](T)[sp].[moe](T)[sp].[moe]([m5C])p.[moe](A)[sp].[moe](T)[sp].[moe](A)[sp].[moe](A)[sp].[moe](T)[sp].[moe](G)[sp].[moe]([m5C])[sp].[moe](T)[sp].[moe](G)}$$$$ (last 3' nucleoside missing)” as the substance, how does the 3 h FOB score read?
A: 3.25 score 0-7

Q: Which 3 h FOB score does the source give for “RNA1{[moe](A)[sp].[moe](T)p.[moe](T)[sp].[moe]([m5C])p.[moe](A)[sp].[moe]([m5C])[sp].[moe](T)[sp].[moe](T)[sp].[moe](T)[sp].[moe]([m5C])[sp].[moe](A)[sp].[moe](T)[sp].[moe](A)[sp].[moe](A)[sp].[moe](T)[sp].[moe](G)[sp].[moe]([m5C])[sp].[moe](T)[sp].[moe](G)}$$$$ (last 3' nucleoside missing)” here?
A: 3.5 score 0-7

Q: Which 3 h FOB score does the source give for “RNA1{[moe](A)[sp].[moe](T)p.[moe](T)p.[moe]([m5C])[sp].[moe](A)[sp].[moe]([m5C])[sp].[moe](T)[sp].[moe](T)[sp].[moe](T)[sp].[moe]([m5C])[sp].[moe](A)[sp].[moe](T)[sp].[moe](A)[sp].[moe](A)[sp].[moe](T)[sp].[moe](G)[sp].[moe]([m5C])[sp].[moe](T)[sp].[moe](G)}$$$$ (last 3' nucleoside missing)” here?
A: 3.25 score 0-7

Q: For “RNA1{[moe](A)[sp].[moe]([m5C])[sp].[moe](T)[sp].[moe](T)[sp].[moe](T)[sp].[moe]([m5C])[sp].[moe](A)[sp].[moe](T)[sp].[moe](A)[sp].[moe](A)[sp].[moe](T)[sp].[moe](G)[sp].[moe]([m5C])[sp].[moe](T)[sp].[moe](G)[sp].[moe](G)[sp].[moe]([m5C])[sp].[moe](A)}$$$$ (last 3' nucleoside missing)”, which 3 h FOB score is on record?
A: 0 score 0-7

Q: With “RNA1{[moe](A)[sp].[moe]([m5C])[sp].[moe](T)[sp].[moe](T)[sp].[moe](T)[sp].[moe]([m5C])[sp].[moe](A)[sp].[moe](T)[sp].[moe](A)[sp].[moe](A)[sp].[moe](T)[sp].[moe](G)[sp].[moe]([m5C])[sp].[moe](T)[sp].[moe](G)[sp].[moe](G)}$$$$ (last 3' nucleoside missing)” as the substance, how does the 3 h FOB score read?
A: 1.12 score 0-7

Q: “RNA1{[moe](A)[sp].[moe]([m5C])[sp].[moe](T)[sp].[moe](T)[sp].[moe](T)[sp].[moe]([m5C])[sp].[moe](A)[sp].[moe](T)[sp].[moe](A)[sp].[moe](A)[sp].[moe](T)[sp].[moe](G)[sp].[moe]([m5C])[sp].[moe](T)[sp].[moe](G)}$$$$ (last 3' nucleoside missing)” was tested. Which 3 h FOB score did it give?
A: 3.75 score 0-7

Q: “RNA1{[moe](A)[sp].[moe]([m5C])[sp].[moe](T)[sp].[moe](T)[sp].[moe](T)[sp].[moe]([m5C])[sp].[moe](A)[sp].[moe](T)[sp].[moe](A)[sp].[moe](A)[sp].[moe](T)p.[moe](G)p.[moe]([m5C])p.[moe](T)p.[moe](G)[sp].[moe](G)}$$$$ (last 3' nucleoside missing)” was tested. Which 3 h FOB score did it give?
A: 0 score 0-7

Q: For “RNA1{[moe](A)[sp].[moe]([m5C])[sp].[moe](T)[sp].[moe](T)[sp].[moe](T)[sp].[moe]([m5C])[sp].[moe](A)[sp].[moe](T)[sp].[moe](A)p.[moe](A)p.[moe](T)p.[moe](G)p.[moe]([m5C])[sp].[moe](T)[sp].[moe](G)[sp].[moe](G)}$$$$ (last 3' nucleoside missing)”, which 3 h FOB score is on record?
A: 0 score 0-7

Q: How did the 3 h FOB score turn out when “RNA1{[moe](A)[sp].[moe]([m5C])[sp].[moe](T)[sp].[moe](T)[sp].[moe](T)[sp].[moe]([m5C])[sp].[moe](A)[sp].[moe](T)p.[moe](A)p.[moe](A)p.[moe](T)[sp].[moe](G)[sp].[moe]([m5C])[sp].[moe](T)[sp].[moe](G)[sp].[moe](G)}$$$$ (last 3' nucleoside missing)” was run?
A: 1 score 0-7

Q: How did the 3 h FOB score turn out when “RNA1{[moe](A)[sp].[moe]([m5C])[sp].[moe](T)[sp].[moe](T)[sp].[moe](T)[sp].[moe]([m5C])[sp].[moe](A)p.[moe](T)p.[moe](A)p.[moe](A)p.[moe](T)[sp].[moe](G)[sp].[moe]([m5C])[sp].[moe](T)[sp].[moe](G)[sp].[moe](G)}$$$$ (last 3' nucleoside missing)” was run?
A: 0.25 score 0-7

Q: “RNA1{[moe](A)[sp].[moe]([m5C])[sp].[moe](T)[sp].[moe](T)[sp].[moe](T)[sp].[moe]([m5C])[sp].[moe](A)p.[moe](T)p.[moe](A)p.[moe](A)p.[moe](T)p.[moe](G)[sp].[moe]([m5C])[sp].[moe](T)[sp].[moe](G)[sp].[moe](G)}$$$$ (last 3' nucleoside missing)” was tested. Which 3 h FOB score did it give?
A: 0 score 0-7

Q: With “RNA1{[moe](A)[sp].[moe]([m5C])[sp].[moe](T)[sp].[moe](T)[sp].[moe](T)[sp].[moe]([m5C])p.[moe](A)p.[moe](T)p.[moe](A)p.[moe](A)p.[moe](T)p.[moe](G)[sp].[moe]([m5C])[sp].[moe](T)[sp].[moe](G)[sp].[moe](G)}$$$$ (last 3' nucleoside missing)” as the substance, how does the 3 h FOB score read?
A: 0 score 0-7
